Data from ChEMBL document CHEMBL1145992, “N6-substituted D-4'-thioadenosine-5'-methyluronamides: potent and selective agonists at the human A3 adenosine receptor” (J Med Chem, 2003).

Columns and labels:
Adenosine receptor A2a [1] = molecular target: Adenosine receptor A2a (Homo sapiens, UniProt P29274); assay: Binding affinity for human adenosine A2A receptor in CHO cells using [3H]CGS-21680; format: cell-based
Adenosine receptor A1 = molecular target: T1, Adenosine receptor A1 (Rattus norvegicus, UniProt P25099); assay: Binding affinity for rat Adenosine A1 receptor in rat brain homogenates using [3H]N6-(R)-phenylisopropyladenosine
T1 sequence (P25099 whole entry): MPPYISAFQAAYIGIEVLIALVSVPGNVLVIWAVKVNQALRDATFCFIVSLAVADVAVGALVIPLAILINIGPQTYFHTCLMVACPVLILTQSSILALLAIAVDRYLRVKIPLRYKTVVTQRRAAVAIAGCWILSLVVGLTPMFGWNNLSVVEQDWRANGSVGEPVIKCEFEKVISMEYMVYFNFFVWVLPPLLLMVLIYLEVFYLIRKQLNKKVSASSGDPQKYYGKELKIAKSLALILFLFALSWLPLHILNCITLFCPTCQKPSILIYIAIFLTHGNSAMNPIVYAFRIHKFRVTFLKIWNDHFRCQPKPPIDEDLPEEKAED

Adenosine receptor A2a [2] = molecular target: Adenosine receptor A2a (Rattus norvegicus, UniProt P30543); assay: Binding affinity for rat adenosine A2A receptor in rat brain homogenates using [3H]CGS-21680
Adenosine receptor A2a (Rattus norvegicus, UniProt P30543), sequence (P30543 whole entry): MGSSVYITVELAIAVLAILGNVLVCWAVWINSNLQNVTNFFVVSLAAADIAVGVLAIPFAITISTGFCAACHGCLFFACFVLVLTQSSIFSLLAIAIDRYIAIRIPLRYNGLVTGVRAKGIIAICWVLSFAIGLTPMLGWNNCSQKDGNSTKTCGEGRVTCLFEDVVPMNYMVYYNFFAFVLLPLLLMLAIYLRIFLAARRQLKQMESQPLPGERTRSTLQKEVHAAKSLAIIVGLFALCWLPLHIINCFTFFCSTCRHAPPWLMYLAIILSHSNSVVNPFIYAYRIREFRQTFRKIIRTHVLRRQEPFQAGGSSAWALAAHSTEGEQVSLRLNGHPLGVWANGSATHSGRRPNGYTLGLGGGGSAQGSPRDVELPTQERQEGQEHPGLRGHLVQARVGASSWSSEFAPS

Adenosine receptor A3 = molecular target: T2, Adenosine receptor A3 (Homo sapiens, UniProt P0DMS8); assay: Inhibitory concentration against human Adenosine A3 receptor mediated inhibition of cyclic AMP in transfected CHO cells; format: functional, cell-based
T2 sequence (P0DMS8 whole entry): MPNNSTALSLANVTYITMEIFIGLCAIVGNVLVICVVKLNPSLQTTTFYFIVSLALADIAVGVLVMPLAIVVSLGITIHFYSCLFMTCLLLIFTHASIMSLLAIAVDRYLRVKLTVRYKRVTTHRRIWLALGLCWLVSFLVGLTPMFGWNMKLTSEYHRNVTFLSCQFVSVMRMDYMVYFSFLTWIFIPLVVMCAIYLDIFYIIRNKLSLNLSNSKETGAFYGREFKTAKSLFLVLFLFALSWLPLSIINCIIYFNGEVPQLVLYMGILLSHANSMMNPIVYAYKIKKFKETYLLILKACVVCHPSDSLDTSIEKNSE

[3] = molecular target: Adenosine receptor A2a (Rattus norvegicus) (UniProt P30543); assay: Percent displacement of [3H]-CGS-21,680 from rat adenosine A2A receptor in rat brain homogenates at 1 uM
Adenosine receptor A2a (Rattus norvegicus), sequence (P30543 whole entry): as the sequence (P30543 whole entry) above

Adenosine receptor A2a (Homo sapiens, UniProt P29274), sequence (P29274 whole entry): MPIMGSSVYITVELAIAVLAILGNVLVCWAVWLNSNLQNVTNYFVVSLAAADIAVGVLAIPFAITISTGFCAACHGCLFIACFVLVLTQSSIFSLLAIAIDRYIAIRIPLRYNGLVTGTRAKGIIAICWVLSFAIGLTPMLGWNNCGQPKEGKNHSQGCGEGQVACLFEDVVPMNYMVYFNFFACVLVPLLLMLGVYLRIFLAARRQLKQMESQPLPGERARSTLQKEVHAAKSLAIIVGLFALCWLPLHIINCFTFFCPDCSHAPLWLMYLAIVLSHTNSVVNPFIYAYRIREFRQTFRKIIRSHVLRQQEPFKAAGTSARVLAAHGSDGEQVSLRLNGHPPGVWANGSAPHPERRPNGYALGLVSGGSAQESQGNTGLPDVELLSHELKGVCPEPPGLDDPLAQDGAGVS

IC50 (Adenosine receptor A3) [nM] | Displacement [3] [%] | Compound | Ki (Adenosine receptor A2a [1]) [nM] | Ki (Adenosine receptor A1) [nM] | Ki (Adenosine receptor A2a [2]) [nM]
 |  | CNC(=O)[C@H]1S[C@@H](n2cnc3c(NCc4cccc(I)c4)nc(Cl)nc32)[C@H](O)[C@@H]1O | 223 | 140 | 348
1 | < 10 | CNC(=O)[C@H]1S[C@@H](n2cnc3c(N)nc(Cl)nc32)[C@H](O)[C@@H]1O |  |  | 
